# The supplement of paper PMC10307832
# What was measured:
# Assay in all cases: relative viability (nuclei count vs DMSO), 5 days (fraction); higher = more cells survive
# Carfilzomib + Lapatinib = compound: CC(C)C[C@H](NC(=O)[C@H](CCc1ccccc1)NC(=O)CN1CCOCC1)C(=O)N[C@@H](Cc1ccccc1)C(=O)N[C@@H](CC(C)C)C(=O)[C@@]1(C)CO1 [Carfilzomib] + CS(=O)(=O)CCNCc1ccc(-c2ccc3ncnc(Nc4ccc(OCc5cccc(F)c5)c(Cl)c4)c3c2)o1 [Lapatinib] (partner 2 µM)
# Method in brief: (§1)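 Cells from lung cancer lines were seeded into 1536-well plates and, one day later, dosed by pin tool. Treatments were either a single drug or a fixed dose of an anchor drug with five library-drug doses (not always all listed) in √10 steps. After 5 days, nuclei were stained in a one-step fixation (final 0.05% Triton X-100, 1% formaldehyde, 1 ug/ml Hoechst) and counted on 4× images, and relative viability is the treated-to-vehicle nuclei ratio, as the median of duplicate plates.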
# [1] = compound: CC(C)C[C@H](NC(=O)[C@H](CCc1ccccc1)NC(=O)CN1CCOCC1)C(=O)N[C@@H](Cc1ccccc1)C(=O)N[C@@H](CC(C)C)C(=O)[C@@]1(C)CO1 [Carfilzomib] + CC(=O)c1c(C)c2cnc(Nc3ccc(N4CCNCC4)cn3)nc2n(C2CCCC2)c1=O [Palbociclib] (partner 0.5 µM)
# Method in brief: as §1
# Carfilzomib + Navitoclax = compound: CC(C)C[C@H](NC(=O)[C@H](CCc1ccccc1)NC(=O)CN1CCOCC1)C(=O)N[C@@H](Cc1ccccc1)C(=O)N[C@@H](CC(C)C)C(=O)[C@@]1(C)CO1 [Carfilzomib] + CC1(C)CCC(c2ccc(Cl)cc2)=C(CN2CCN(c3ccc(C(=O)NS(=O)(=O)c4ccc(N[C@H](CCN5CCOCC5)CSc5ccccc5)c(S(=O)(=O)C(F)(F)F)c4)cc3)CC2)C1 [Navitoclax] (partner 0.5 µM)
# Method in brief: as §1
# Crizotinib + Phenformin = compound: C[C@@H](Oc1cc(-c2cnn(C3CCNCC3)c2)cnc1N)c1c(Cl)ccc(F)c1Cl [Crizotinib] + N=C(N)NC(=N)NCCc1ccccc1 [Phenformin] (partner 250 µM)
# Method in brief: as §1
# Olaparib + Tozasertib = compound: O=C(c1cc(Cc2n[nH]c(=O)c3ccccc23)ccc1F)N1CCN(C(=O)C2CC2)CC1 [Olaparib] + Cc1cc(Nc2cc(N3CCN(C)CC3)nc(Sc3ccc(NC(=O)C4CC4)cc3)n2)n[nH]1 [Tozasertib] (partner 0.1 µM)
# Method in brief: as §1
cell line,measurement,setting,value
NCI-H1793,relative viability,Carfilzomib + Lapatinib; first compound 0.003162 µM,0.772
same,relative viability,Carfilzomib + Lapatinib; first compound 0.01 µM,0.476
same,relative viability,Carfilzomib + Lapatinib; first compound 0.03162 µM,0.424
same,relative viability,Carfilzomib + Lapatinib; first compound 0.1 µM,0.114
same,relative viability,[1]; first compound 0.001 µM,0.338
same,relative viability,[1]; first compound 0.003162 µM,0.402
same,relative viability,[1]; first compound 0.01 µM,0.331
same,relative viability,[1]; first compound 0.03162 µM,0.275
same,relative viability,[1]; first compound 0.1 µM,0.197
same,relative viability,Carfilzomib + Navitoclax; first compound 0.003162 µM,0.497
same,relative viability,Carfilzomib + Navitoclax; first compound 0.01 µM,0.52
same,relative viability,Carfilzomib + Navitoclax; first compound 0.03162 µM,0.462
same,relative viability,Carfilzomib + Navitoclax; first compound 0.1 µM,0.195
same,relative viability,Crizotinib + Phenformin; first compound 0.03162 µM,0.408
same,relative viability,Crizotinib + Phenformin; first compound 0.1 µM,0.343
same,relative viability,Crizotinib + Phenformin; first compound 1 µM,0.388
same,relative viability,Olaparib + Tozasertib; first compound 0.08 µM,0.324
same,relative viability,Olaparib + Tozasertib; first compound 0.253 µM,0.279
same,relative viability,Olaparib + Tozasertib; first compound 2.53 µM,0.409
same,relative viability,Olaparib + Tozasertib; first compound 8 µM,0.358
